Data reported in patent US10899774B2, “IRAK4 modulators” (Genentech, Inc., priority 2017, dated 2021).
Counter-ions that a name gives are not always drawn.

target: human IRAK4 (Homo sapiens (Human), UniProt Q9NWZ3); experiment: IRAK4 kinase inhibition, Transcreener fluorescence polarization (ADP detection); format: biochemical; details: recombinant full-length His6-IRAK4; 1.25 nM IRAK4; 125 μM ATP; 90 min; ATP Km 642 μM
Procedure: Compounds were assayed for inhibition of human IRAK4 and IRAK1 catalytic activity using recombinant enzyme produced from insect cells. Full-length IRAK4 protein, carrying an N-terminal His6-Tag, was obtained from Life Technologies (Carlsbad, Calif., USA). The IRAK1 construct was produced internally and was comprised of IRAK1 residues Arg194 to Ser712, preceded by an NH2-terminal His6 tag and the coding sequence for glutathione-S-transferase.
Kinase activities were assayed using the Transcreener-Fluorecescence polarization platform (BelBrook Labs, Madison, Wis., USA) that measures amounts of the reaction product, ADP.
384 well assay plates spotted with compound received 4 μl of a 2× substrate (ATP+peptide) mix in reaction buffer, followed by 4 μl of 2× enzyme diluted in reaction buffer.

human IRAK4, sequence (Q9NWZ3 whole entry, the tested form may be a part): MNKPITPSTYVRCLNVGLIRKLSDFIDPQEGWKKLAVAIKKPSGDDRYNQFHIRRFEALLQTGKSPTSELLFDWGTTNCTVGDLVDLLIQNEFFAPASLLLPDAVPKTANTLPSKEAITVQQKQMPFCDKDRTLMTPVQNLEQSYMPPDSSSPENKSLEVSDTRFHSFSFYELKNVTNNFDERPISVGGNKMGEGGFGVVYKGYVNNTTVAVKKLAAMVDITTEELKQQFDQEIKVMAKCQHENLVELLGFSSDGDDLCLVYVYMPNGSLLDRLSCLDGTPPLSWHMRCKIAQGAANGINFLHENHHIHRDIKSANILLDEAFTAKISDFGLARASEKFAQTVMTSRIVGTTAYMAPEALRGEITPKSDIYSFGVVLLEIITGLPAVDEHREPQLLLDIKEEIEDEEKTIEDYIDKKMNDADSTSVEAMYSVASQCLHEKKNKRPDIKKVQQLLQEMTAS

Ki | Compound
0.028 µM | CC1(CO)Cc2cc(NC(=O)c3csc4cc(C#N)cnc34)c(N3CCOCC3)cc2O1 (stereo not drawn) [Example 69, 6-Cyano-N-(2-(hydroxymethyl)-2-methyl-6-morpholino-2,3-dihydrobenzofuran-5-yl)thieno[3,2-b]pyridine-3-carboxamide Formate]
0.39 µM | CC1COc2c(C(=O)Nc3cc4c(cc3N3CCOCC3)OC(C)(CO)C4)cnn2C1 (stereo not drawn) [Example 55, N-[2-(Hydroxymethyl)-2-methyl-6-morpholino-3H-benzofuran-5-yl]-6-methyl-6,7-dihydro-5H-pyrazolo[5,1-b][1,3]oxazine-3-carboxamide]
0.0036 µM | C[C@@]1(CO)Cc2cc(NC(=O)c3ccc4cncnn34)c(N3CCOCC3)cc2O1 (single isomer, unassigned) [Example 23]
0.021 µM | C[C@]1(CO)Cc2cc(NC(=O)c3ccc4cccnn34)c(N3CCOCC3)cc2O1 (single isomer, unassigned) [Example 19]
0.0077 µM | C[C@]1(CO)Cc2cc(NC(=O)c3ccc4cncnn34)c(N3CCOCC3)cc2O1 (single isomer, unassigned) [Example 24]
0.048 µM | Cn1ccc(C(=O)Nc2cc3c(cc2N2CCOCC2)O[C@](C)(CO)C3)n1 (single isomer, unassigned) [Example 16]
0.28 µM | Cc1cnc(C(=O)Nc2cc3c(cc2N2CCOCC2)OC(C)(C)C3)cn1 [Example 13, N-(2,2-Dimethyl-6-morpholino-2,3-dihydrobenzofuran-5-yl)-5-methylpyrazine-2-carboxamide]
0.019 µM | C[C@@]1(CO)Cc2cc(NC(=O)c3csc4cc(Cl)cnc34)c(N3CCOCC3)cc2O1 (stereo in doubt) [Example 57, (S)-6-Chloro-N-(2-(hydroxymethyl)-2-methyl-6-morpholino-2,3-dihydrobenzofuran-5-yl)thieno[3,2-b]pyridine-3-carboxamide]
0.07 µM | Cn1nnc2c(C(=O)Nc3cc4c(cc3N3CCOCC3)O[C@](C)(CO)C4)cncc21 (single isomer, unassigned) [Example 68]
0.0071 µM | CC1(C)Cc2cc(NC(=O)c3cccc4[nH]nnc34)c(N3CCOCC3)cc2O1 [Example 4, N-(2,2-Dimethyl-6-morpholino-2,3-dihydrobenzofuran-5-yl)-1H-benzo[d][1,2,3]triazole-4-carboxamide]

More lines, now with the values behind:

Compound | Ki
Cc1ccc(C(=O)Nc2cc3c(cc2N2CCOCC2)OC(C)(C)C3)o1 [Example 31, N-(2,2-Dimethyl-6-morpholino-2,3-dihydrobenzofuran-5-yl)-5-methylfuran-2-carboxamide] | 0.023 µM
COc1cc(-n2ccc(C(=O)Nc3cc4c(cc3N3CCOCC3)OC(C)(C)C4)n2)ccn1 [Example 60, N-(2,2-Dimethyl-6-morpholino-3H-benzofuran-5-yl)-1-(2-methoxy-4-pyridyl)pyrazole-3-carboxamide] | 0.0082 µM
CC1(C)Cc2cc(NC(=O)c3cnsn3)c(N3CCOCC3)cc2O1 [Example 14, N-(2,2-Dimethyl-6-morpholino-2,3-dihydrobenzofuran-5-yl)-1,2,5-thiadiazole-3-carboxamide] | 0.34 µM
CC1(C)Cc2cc(NC(=O)c3ccn(-c4ccnc(C(C)(C)O)c4)n3)c(N3CCOCC3)cc2O1 [Example 61, N-(2,2-Dimethyl-6-morpholino-3H-benzofuran-5-yl)-1-[2-(1-hydroxy-1-methyl-ethyl)-4-pyridyl]pyrazole-3-carboxamide] | 0.0046 µM
CC1(C)Cc2cc(NC(=O)c3coc(C(C)(C)C)n3)c(N3CCOCC3)cc2O1 [Example 41, 2-(tert-Butyl)-N-(2,2-dimethyl-6-morpholino-2,3-dihydrobenzofuran-5-yl)oxazole-4-carboxamide] | 0.043 µM
CC1(C)Cc2cc(NC(=O)c3cccc4[nH]cnc34)c(N3CCOCC3)cc2O1 [Example 20, N-(2,2-Dimethyl-6-morpholino-2,3-dihydrobenzofuran-5-yl)-1H-benzo[d]imidazole-4-carboxamide] | 0.03 µM
CC1(C)Cc2cc(NC(=O)c3cnn4ccc(=O)[nH]c34)c(N3CCOCC3)cc2O1 [Example 71, N-(2,2-dimethyl-6-morpholino-3H-benzofuran-5-yl)-5-oxo-4H-pyrazolo[1,5-a]pyrimidine-3-carboxamide] | 0.93 µM
CC1(C)Cc2cc(NC(=O)c3ccc[nH]c3=O)c(N3CCOCC3)cc2O1 [Example 12, N-(2,2-Dimethyl-6-morpholino-2,3-dihydrobenzofuran-5-yl)-2-oxo-1,2-dihydropyridine-3-carboxamide] | 0.077 µM
CC1(C)Cc2cc(NC(=O)c3ccnc(S(C)(=O)=O)n3)c(N3CCOCC3)cc2O1 [Example 9, N-(2,2-Dimethyl-6-morpholino-2,3-dihydrobenzofuran-5-yl)-2-(methylsulfonyl)pyrimidine-4-carboxamide] | 0.53 µM
CC1(C)Cc2cc(NC(=O)c3cnc4cccnn34)c(N3CCOCC3)cc2O1 [Example 15, N-(2,2-Dimethyl-6-morpholino-2,3-dihydrobenzofuran-5-yl)imidazo[1,2-b]pyridazine-3-carboxamide] | 0.036 µM
CC1(C)Cc2cc(NC(=O)c3cccc4[nH]c(CO)nc34)c(N3CCOCC3)cc2O1 [Example 40, N-(2,2-Dimethyl-6-morpholino-2,3-dihydrobenzofuran-5-yl)-2-(hydroxymethyl)-1H-benzo[d]imidazole-4-carboxamide] | 0.028 µM
CC1(C)Cc2cc(NC(=O)c3ccco3)c(N3CCOCC3)cc2O1 [Example 48, N-(2,2-Dimethyl-6-morpholino-2,3-dihydrobenzofuran-5-yl)furan-2-carboxamide] | 0.22 µM
CC1(C)Cc2cc(NC(=O)c3ccncn3)c(N3CCOCC3)cc2O1 [Example 46, N-(2,2-Dimethyl-6-morpholino-2,3-dihydrobenzofuran-5-yl)pyrimidine-4-carboxamide] | 0.14 µM
Cc1nc(C(=O)Nc2cc3c(cc2N2CCOCC2)OC(C)(C)C3)ccc1C#N [Example 5, 5-Cyano-N-(2,2-dimethyl-6-morpholino-2,3-dihydrobenzofuran-5-yl)-6-methylpicolinamide] | 0.025 µM
CCc1cnc(C(=O)Nc2cc3c(cc2N2CCOCC2)OC(C)(C)C3)[nH]1 [Example 43, N-(2,2-Dimethyl-6-morpholino-2,3-dihydrobenzofuran-5-yl)-5-ethyl-1H-imidazole-2-carboxamide] | 0.11 µM
CC1(C)Cc2cc(NC(=O)c3ccc(O)nn3)c(N3CCOCC3)cc2O1 [Example 2, N-(2,2-Dimethyl-6-morpholino-2,3-dihydrobenzofuran-5-yl)-6-hydroxypyridazine-3-carboxamide] | 0.03 µM
CC1(C)Cc2cc(NC(=O)c3ccn(-c4cc[nH]c(=O)c4)n3)c(N3CCOCC3)cc2O1 [Example 70, N-(2,2-Dimethyl-6-morpholino-3H-benzofuran-5-yl)-1-(2-oxo-1H-pyridin-4-yl)pyrazole-3-carboxamide] | 0.0027 µM
CC1(C)Cc2cc(NC(=O)c3n[nH]c4cccnc34)c(N3CCOCC3)cc2O1 [Example 45, N-(2,2-Dimethyl-6-morpholino-2,3-dihydrobenzofuran-5-yl)-1H-pyrazolo[4,3-b]pyridine-3-carboxamide] | 0.49 µM
CC1(C)Cc2cc(NC(=O)c3coc(-c4ccncn4)n3)c(N3CCOCC3)cc2O1 [Example 34, N-(2,2-Dimethyl-6-morpholino-2,3-dihydrobenzofuran-5-yl)-2-(pyrimidin-4-yl)oxazole-4-carboxamide] | 0.017 µM
Cc1cn2cccc(C(=O)Nc3cc4c(cc3N3CCOCC3)OC(C)(C)C4)c2n1 [Example 65, N-(2,2-Dimethyl-6-morpholino-3H-benzofuran-5-yl)-2-methyl-imidazo[1,2-a]pyridine-8-carboxamide] | 0.27 µM
CC1(C)Cc2cc(NC(=O)c3cccc(F)n3)c(N3CCOCC3)cc2O1 [Example 8, N-(2,2-Dimethyl-6-morpholino-2,3-dihydrobenzofuran-5-yl)-6-fluoropicolinamide] | 0.045 µM
C[C@H]1COCCN1c1nc(C(=O)Nc2cc3c(cc2N2CCOCC2)OC(C)(C)C3)co1 [Example 26, (S)-N-(2,2-Dimethyl-6-morpholino-2,3-dihydrobenzofuran-5-yl)-2-(3-methylmorpholino)oxazole-4-carboxamide] | 0.035 µM
Cc1cnc(C(=O)Nc2cc3c(cc2N2CCOCC2)OC(C)(C)C3)[nH]1 [Example 44, N-(2,2-Dimethyl-6-morpholino-2,3-dihydrobenzofuran-5-yl)-5-methyl-1H-imidazole-2-carboxamide] | 0.29 µM
